Laboratory results from patent publication US20170202939A1, “PERSONALIZED CANCER VACCINES AND METHODS THEREFOR” (Washington University, priority 2014, published 2017).
No end group written: not given here.

Molecular target: T1, soluble HLA-A*02:01 from TMC expressing A375 melanoma cells (Homo sapiens, UniProt P04439, D140Y/D185E/D98H/E176V/E277Q/G131W/G231S/I119V/I121R/I166T/I218V/L300P/L318F/N151K/N90K/P208A/P217A/Q86G/Q94H/R138H/R169H/T345S)
T1 construct: TMC expressing A375 melanoma cells were transfected with soluble HLA-A*02:01(sHLA-A*02:01); expressed in transfected cells; host or cells: A375 melanoma cells expressing the MEL218 AAS tandem mini-gene construct
Assay: proteomic analysis (RP-HPLC, LC/MS) of peptides eluted from soluble HLA-A*02:01
Conditions: A375 melanoma cells expressing MEL218 TMC
Protocol: To validate neoantigen processing and presentation, proteomic analysis was performed on peptides eluted from soluble HLA-A*02:01 molecules isolated from melanoma cells expressing a TMC encoding AAS candidates from patient MEL218 tumor (Sercarz, E. E., et al., Annu. Rev. Imunol., 11, 729-766, 1993; Assarsson, E., et al., J. Immunol., 178, 7890-7901, 2007). TMC expressing A375 melanoma cells were transfected with soluble HLA-A*02:01(sHLA-A*02:01) and single cell sorted for a high (>1000 ng/ml in static culture) sHLAA*02:01 producing clone. The sHLA-A*02:01 construct includes a C-terminal VLDLr epitope purification tag ([…] ID NO. 32) that is recognized by the anti-VLDLr mAb (ATCC CRL-2197). This antibody was also used for quantification of sHLA production as the capture antibody in a sandwich ELISA, with an antibody directed against β2-microglobulin (Dako Cytomation) as the detector antibody. Cells were grown in roller bottles and sHLA/peptide complexes were purified from supernatants by affinity chromatography with the anti-VLDLr antibody (Kaabinejadian, S., et al., P.L.o.S. One, 8, e66298, 2013). Eluate fractions containing sHLA/peptide complexes were brought to a final acetic acid concentration of 10%, pooled, and heated to 78° C. in a water bath. Peptides were purified through a 3 kDa molecular weight cutoff cellulose membrane (EMD Millipore) and lyophilized.
Synthetic peptides corresponding to the mutant sequences were resuspended in 10% acetic acid in water at 1 μM, and fractionated by RP-HPLC with an acetonitrile gradient in 10 mM ammonium formate at pH 10. Peptide-containing fractions were dried and resuspended in 25 ul of 10% acetic acid and subjected to nanoscale RP-HPLC at pH 2.5 utilizing an Eksigent nanoLC coupled to a TripleTOF 5600 (AB Sciex) quadrupole time-of-flight mass spectrometer (LC/MS). Information dependent acquisition (IDA) was used to obtain MS and MS/MS fragment spectra for peptide ions. The sequence of each peptide was determined by observed mass and fragment ions, and the 1st dimension fraction number and LC/MS retention times were recorded.
Next, peptides purified from TMC expressing A375 melanoma cells were resuspended in 10% acetic acid and HPLC fractionated under the same conditions and gradient method. Reverse phase HPLC was used to reduce the complexity and determine the elution profile of the pool of soluble HLA-A*02:01 restricted peptides presented by melanoma cells, as well as, the synthetic AAS peptide mixture. FIGS. 40A and 40E illustrate RP-HPLC fractionation of HLA-A*02:01 peptides eluted from the AAS-TMC expressing melanoma cell line (solid trace) and the synthetic peptide mixture containing MEL218 neoantigen candidates (dashed trace), with fraction 50 (FIG. 40A) and fraction 44 (FIG. 40E) indicated. […]

Sequence | HLA-A*02:01 presentation by LC/MS of eluted peptides
IILVAVPHV | confirmed HLA-A*02:01 presentation
MLGEQLFPL | demonstrated the HLA-A*02:01 presentation
